From patent publication US7091238B1, “Thienylhydrazon with digitalis-like properties (positive inotropic effects)” (University of Maryland, priority 1999, dated 2006) come the findings set out here.

One data set has as its system particulate PDE 4. Put plainly: Direct inhibition of particulate PDE 4. In kind it is biochemical. Particulars: rat heart.
Data set [1] concerns sarcoplasmic reticulum of cardiac muscle fibers. Put plainly: Caffeine-induced contracture of saponin-treated left ventricular fibers (Ca2+ uptake/storage by sarcoplasmic reticulum). On the set-up: species or system Wistar rats. Here is the method: FIG. 7. Bundles of left ventricular fibers were treated with saponin and exposed to 0.5 mM CaCl2 to enable maximal tension development (Po). The contracture initiated by caffeine (20 mM) was measured after treatment of the sarcoplasmic reticulum (SR) with a solution of pCa 6.6 in the absence or presence of LASSBio-294 (100 μM0 for 0.5, 1.0 and 5.0 min. N=6. Calibration: Vertical, 10 mm=20 mg load; Horizontal, 10 mm=40 sec.
FIG. 8. Contracture induced by caffeine in relation to loading of the sarcoplasmic reticulum with a solution of pCa 6.6.
FIG. 9. The contractual responses were obtained during exposure to 20 mM caffeine after loading of the sarcoplasmic reticulum with pCA 6.6 in the absence and the presence of LASSBio-294.
FIG. 11. Concentration-response relationship for contracture induced by caffeine in the presence of 100 μM LASSBio-294. *p<0.01.
b. Graphic representation of the tests in FIG. 7 showing the effect of LASSBio-294 on uptake of Ca^2+ by sarcoplasmic reticulum in isolated cardiac muscle with sarcolemma removed. FIG. 9 illustrates the effect of LASSBio-294 on tension in isolated cardiac muscle with sarcolemma removed was measured. Measurement of contraction induced by caffeine, as a function concentration of LASSBio-294 in bathing solution. FIG. 9 is a graphic representation of the effect of increasing concentrations of LASSBio-294 between 0 and 20 μM. […] FIG. 12 illustrates the effect of LASSBio-294 on sensitivity of cardiac fibers to calcium. Calcium levels can induce isometric twitch. […] FIG. 13 provides a graphic representation of data in FIG. 12. General Method
Bundles of left ventricular muscle (130 μm diameter and 1–2 mm in thickness) from Wistar rats were dissected out and mounted for measurement of isometric tension. The muscles were treated with saponin solution (0.5%) for 5 minutes to […] the permeability of the sarcolemma. The membranes of the SR were then […] with Triton X-100 (1% v/v) with the objective of investigating the effects of LASSBio-294 on the sensitivity of the contractile system Ca^2+. […] Caffeine is used to elicit contraction in muscle. Comparison of caffeine alone to caffeine in the presence of LASSBio-294 was measured.

In a further data set the test system is blood cells. The data set is described as follows: Blood cell analysis in treated mice. Particulars: 2 or 10 mg/kg. In kind it is in vivo. Here is the method: (§1) b. Rats were weighed before and after treatment with LASSBio 204. […] Six rats were examined in each group, measurements were made after 1–15 days of treatment. […] Mice were injected with LASSBio-294 and their blood examined for cell changes. Experimental groups received 2 or 10 mg/kg of drug. […] Table 4 lists blood chemistry analysis of mice treated with LASSBio-294. Experimental groups received 2 or 10 mg/kg of drug. Controls were saline and solvent. […] The low values of glucose found could be due to an artifact of the technique, glucose being a byproduct of hemolysis. […] General Method

A short description of data set [2]: Toxicity study: body weight after injection. In kind it is in vivo, mice. The note with it: vs saline and solvent vehicle controls, 1–15 days of treatment. Here is the method:
as §1

The subject of the next data set is phosphodiesterase. The data set is described as follows: Phosphodiesterase direct effect. In kind it is biochemical. An excerpt:
Determination of phosphodiesterase direct effect was also negative.

The test system of a further data set is dogs. The data set is described as follows: Left intraventricular and arterial pressure in intact anesthetized dogs. In kind it is in vivo, dog. The note with it: normal cardiac function, no pre-load, 1 mg kg^−1 min^−1 for 13 min. The protocol:
FIG. 6. Recording of left intraventricular pressure and arterial pressure in dogs anesthetized and ventilated normally.
FIG. 6 illustrates a test that measured pressure from the hearts of intact dogs during LASSBio-294 application. Recordings were made of left intraventricular pressure and arterial pressure.
Dogs were anesthetized and normally ventilated. Recordings were made before and after application of LASSBio-294, 1 mg kg^−1 min^−1 for 13 min.

Molecules are shown by their SMILES. Entries after “also recorded” stand apart in the source; their conditions may differ.

For the molecule `O=C(NN=Cc1cccs1)c1ccc2c(c1)OCO2` [LASSBio-294, 3,4-methylenedioxybenzoyl-2-thienylhydrazone], the “direct inhibition of particulate PDE 4” value in the data set with particulate PDE 4 was “did not inhibit directly”. Besides, the “uptake of Ca^2+ by the sarcoplasmic reticulum” value in data set [1] (100 μM, loading at pCa 6.6, 20 mM caffeine contracture) is on record as “increases uptake of Ca^2+”. Also, in data set [1] (20 mM caffeine, concentrations between 0 and 20 μM), the “response to caffeine as a function of compound concentration” value is given as “increases until 10 μM”. Besides, the “contraction (isometric tension) elicited by caffeine” value in data set [1] (caffeine 0.05 to 10 mM, 100 μM compound vs control) was “increased over control at all concentrations”. The “storage of Ca^2+ by the sarcoplasmic reticulum” value in data set [1] (cardiac muscle fibers) is “increases the storage of Ca^2+”. In the data set with blood cells, the blood cell values entry is recorded as “unaffected; also recorded: no significant change in blood cell values”; the “hematocrit levels, leucocytes and hemoglobin” value is “not significantly changed”. In addition, in data set [2], the body weight entry is on record as “unaffected”. Besides, the body weight entry in data set [2] (listed as LASSBio294) is “no change in weight”. The phosphodiesterase direct effect result in the data set with phosphodiesterase is listed as “negative”. The “left intraventricular pressure and arterial pressure” value in the data set on dogs is “no change in pressure”.
